Data: patent US4354973A, “Pyrrolo[3,4-d][2]benzazepines” (Hoffmann-La Roche Inc., priority 1981, dated 1982)

Assays:
mice = assay: Footshock (fighting episodes of pairs of mice); type: in vivo; details: Mus musculus; pairs of mice pretreated 1 hour prior to second shocking; 3 out of 3 pairs blocked from fighting; read-out: Footshock, 100% blocking dose
Protocol: A pair of mice is confined under a one liter beaker placed on a grid which presents shock to the feet. At least 5 fighting episodes are elicited in a two-minute period. Pairs of mice are marked and pretreated 1 hour prior to a second shocking. Logarithmic dose intervals are utilized up to a maximum of 100 mg/kg. At the 100% blocking dose, 3 out of 3 pairs must be blocked from fighting.

male mice = assay: Inclined Screen (paralyzing effects); type: in vivo; details: Mus musculus; groups of 6 male mice; at least 4 hours observation; maximum dose 500 mg/kg; read-out: Inclined Screen, PD50
Protocol: Groups of 6 male mice are given the test drug (maximum dose of 500 mg/kg) and then are left on the inclined screen at least 4 hours for observation of paralyzing effects severe enough to cause them to slide off the screen. If activity is observed, additional doses are taken until at least two are reached at which some, but not all of the animals slide off the screen. Doses at which mice fall off the screen due to toxicity or excitation are not included in the calculation of PD50.

Cats = assay: Unanesthetized Cat (minimum symptoms, usually ataxia); type: in vivo; details: Felis catus, oral, up to three cats/dose
Protocol: Cats are treated orally and observed for minimum symptoms-usually ataxia. One cat is used at a dose of 50 mg/kg. If activity is present, up to three cats/dose are used. Results are given as minimum effective dose.

Toxicity (LD50) = details: in vivo, po

Structure (SMILES) | ED100 (mice) [mg/kg] | ED50 (male mice) [mg/kg] | minimal effective dose (Cats) [mg/kg] | LD50 (Toxicity (LD50)) [mg/kg]
Clc1ccc2c(c1)C(c1ccccc1)=NCc1c[nH]cc1-2 [8-Chloro-6-phenyl-2H,4H-pyrrolo[3,4-d][2]benzazepine] | 25 | 400 | 2.5 | > 1000
CS(=O)(=O)O.Cc1[nH]cc2c1-c1ccc(Cl)cc1C(c1ccccc1F)=NC2 [8-Chloro-6-(2-fluorophenyl)-1-methyl-2H,4H-pyrrolo[3,4-d][2]benzazepine methanesulfonate] | 2 | 400 | 2.5 | > 1000
Clc1ccc2c(c1)C(c1ccccc1Cl)=NCc1c[nH]cc1-2 [8-Chloro-6-(2-chlorophenyl)-2H,4H-pyrrolo[3,4-d][2]benzazepine] | 1 | 400 | 0.25 | > 1000
